Data published in patent US6927228B2, “Biaromatic compound activators of PPARγ-type receptors” (Galderma Research & Development, S.N.C., priority 2000, dated 2005).
Marks after values point to notes of the source that are not given here.

Columns and labels:
PPARα receptors = target: T1, PPARα receptors (Homo sapiens, UniProt Q07869); assay: PPARα transactivation test; type: cell-based; settings: concentration of 1 μM, relative to Wy 14643 = 100%
T1 construct: expressed in transfected cells
T1 sequence (Q07869 1-468): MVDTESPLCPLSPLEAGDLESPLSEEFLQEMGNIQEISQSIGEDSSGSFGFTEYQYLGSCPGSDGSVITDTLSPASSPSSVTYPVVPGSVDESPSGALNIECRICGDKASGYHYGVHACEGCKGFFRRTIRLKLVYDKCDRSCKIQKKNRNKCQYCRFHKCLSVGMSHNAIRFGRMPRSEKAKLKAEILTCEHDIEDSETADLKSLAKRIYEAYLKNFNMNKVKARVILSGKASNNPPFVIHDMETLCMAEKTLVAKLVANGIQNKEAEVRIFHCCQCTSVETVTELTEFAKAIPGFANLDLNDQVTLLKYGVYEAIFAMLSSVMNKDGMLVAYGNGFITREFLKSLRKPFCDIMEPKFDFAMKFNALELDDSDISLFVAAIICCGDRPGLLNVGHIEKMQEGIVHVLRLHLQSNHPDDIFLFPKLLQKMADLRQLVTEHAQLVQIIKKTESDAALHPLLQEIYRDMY
Text: [Worded in the source for another target; this target is reported under the same test.] (§1) The agonist activity of the compounds according to the invention towards PPARγ receptors may be evaluated by binding tests and transactivation tests.

PPARγ receptors [1] = target: T2, PPARγ receptors (Homo sapiens, UniProt P37231); assay: PPARγ transactivation test; type: cell-based; design: expressed in transfected cells; settings: concentration of 1 μM, relative to SB 219994 = 100%
T2 sequence (P37231 1-505): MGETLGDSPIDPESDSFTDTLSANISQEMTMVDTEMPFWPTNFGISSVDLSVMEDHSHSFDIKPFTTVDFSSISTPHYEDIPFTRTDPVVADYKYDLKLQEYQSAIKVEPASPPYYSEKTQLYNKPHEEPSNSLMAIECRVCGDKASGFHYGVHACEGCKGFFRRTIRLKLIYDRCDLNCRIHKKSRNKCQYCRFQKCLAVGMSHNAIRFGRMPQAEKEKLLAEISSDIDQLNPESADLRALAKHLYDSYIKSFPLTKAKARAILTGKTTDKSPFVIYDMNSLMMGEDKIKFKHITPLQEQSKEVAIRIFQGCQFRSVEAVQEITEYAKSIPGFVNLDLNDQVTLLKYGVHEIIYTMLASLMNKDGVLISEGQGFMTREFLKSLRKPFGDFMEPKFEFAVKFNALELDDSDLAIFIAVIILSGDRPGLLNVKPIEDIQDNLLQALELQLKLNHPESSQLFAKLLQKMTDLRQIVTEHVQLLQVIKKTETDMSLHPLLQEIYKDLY
Text: as §1

PPARγ receptors [2] = target: T2, PPARγ receptors; assay: PPARγ binding test, competition with tritiated BRL 49,653; design: made in house; host or cells: Sf9 insect cells (recombinant baculovirus); settings: hydroxyapatite gel, receptor from Sf9 insect cells, read-out: Binding of PPAR-γ Kd
Method: The technique of adsorption on hydroxyapatite gel was used to separate the receptor-bound ligand from the free ligand. The human PPARγ receptor was prepared from Sf9 insect cells infected with a recombinant baculovirus. The results are expressed as a Kd value (nM) which represents the equilibrium dissociation constant obtained for each compound.
as §1

Compound	activation at 1 µM (PPARα receptors) [%]	activation at 1 µM (PPARγ receptors [1]) [%]	Kd (PPARγ receptors [2]) [nM]	% of activation of PPARα (PPARα receptors)	% of activation of PPARγ (PPARγ receptors [1]) [%]
CCCCCCCCCC(=O)N(C)Cc1cccc(-c2ccc(CC3SC(=O)NC3=O)cc2)c1 (stereo not shown) [Example 32, N-[4′-(2,4-Dioxothiazolidin-5-ylmethyl)biphenyl-3-ylmethyl]-N-methyldecanamide]	0	74.9	–	–	–
CCCCCCC(=O)N(C)Cc1cccc(-c2ccc(CC3SC(=O)NC3=O)cc2)c1 (stereo not shown) [Example 35, N-[4′-(2,4-Dioxothiazolidin-5-ylmethyl)biphenyl-3-ylmethyl]-N-methylheptanamide]	11	56	–	–	–
CCOc1ccc(C(=O)N(C)Cc2cccc(-c3ccc(CC4SC(=O)NC4=O)cc3)c2)cc1OCC (stereo not shown) [Example 28, N-[4′-(2,4-Dioxothiazolidin-5-ylmethyl)biphenyl-3-ylmethyl]-3,4-diethoxy-N-methylbenzamide]	1.1	79.8	–	–	–
CCO[C@@H](Cc1ccc(-c2cccc(CN(C)C(=O)c3ccccc3)c2)cc1)C(=O)O [Example 13, (S)-2-Ethoxy-3-(3′-{[methyl-(1-phenylmethanoyl)-amino]methyl}biphenyl-4-yl)propionic acid]	0	70.2	24	–	–
CN(Cc1cccc(-c2ccc(CC3SC(=O)NC3=O)cc2)c1)C(=O)OCC1c2ccccc2-c2ccccc21 (stereo not shown) [Example 21, 9H-Fluoren-9-ylmethyl [4′-(2,4-dioxothiazolidin-5-ylmethyl)biphenyl-3-ylmethyl]methylcarbamate]	14.9	90	190	–	–
CCCN(Cc1cccc(-c2ccc(C=C3SC(=O)NC3=O)cc2)c1)C(=O)c1ccccc1 [Example 26, N-[4′-(2,4-Dioxothiazolidin-5-ylidenemethyl)-biphenyl-3-ylmethyl]-N-propylbenzamide]	2.1	88.6	–	–	–
CN(Cc1cccc(-c2ccc(CC3SC(=O)NC3=O)cc2)c1)C(=O)c1ccccc1 (stereo not shown) [Example 1, N-[4′-(2,4-Dioxothiazolidin-5-ylmethyl)biphenyl-3-ylmethyl]-N-methylbenzamide]	8.2	102	55	–	–
CCCCCCCCC(=O)N(C)Cc1cccc(-c2ccc(CC3SC(=O)NC3=O)cc2)c1 (stereo not shown) [Example 12, N-[4′[2,4-dioxothiazolidin-5-ylmethyl)biphenyl-3-ylmethyl]-N-methylnonanamide]	0	60.4	7	–	–
CN(Cc1ccccc1)C(=O)c1cccc(-c2ccc(CC3SC(=O)NC3=O)cc2)c1 (stereo not shown) [Example 30, N-Benzyl-N-methyl-4′-(2,4-dioxothiazolidin-5-ylmethyl)biphenyl-3-carboxamide]	8.9	80.3	–	–	–
CN(Cc1cccc(-c2ccc(CC3SC(=O)NC3=O)cc2)c1)C(=O)OC(C)(C)C (stereo not shown) [Example 11, tert-Butyl [4′-(2,4-dioxothiazolidin-5-ylmethyl)biphenyl-3-ylmethyl]methylcarbamate]	2.4	74.5	289	–	–
CN(Cc1cccc(-c2ccc(CC3SC(=O)NC3=O)cc2)c1)C(=O)C(C)(C)C (stereo not shown) [Example 22, N-[4′-(2,4-Dioxothiazolidin-5-ylmethyl)biphenyl-3-ylmethyl]-2,2,N-trimethylpropionamide]	7.5	95.3	76.6	–	–
CCCCCCCC(=O)N(C)Cc1cccc(-c2ccc(CC3SC(=O)NC3=O)cc2)c1 (stereo not shown) [Example 34, N-[4′-(2,4-Dioxothiazolidin-5-ylmethyl)biphenyl-3-ylmethyl]-N-methyloctanamide]	17.6	102	2	–	–
Cc1cccc(Nc2cc(Cl)nc(SCC(=O)O)n2)c1C [Reference 1: Wy 14643, reference compound]	–	–	–	100* %	–
CN(Cc1cccc(-c2ccc(CC3SC(=O)NC3=O)cc2)c1)c1ccccn1 (stereo not shown) [Example 2, 5-{3′-[(Methylpyrid-2-ylamino)methyl]biphenyl-4-ylmethyl}thiazolidine-2,4-dione]	8.2	42.9	263	–	–
CN(Cc1cccc(-c2ccc(CC3SC(=O)NC3=O)cc2)c1)C(=O)CCc1ccccc1 (stereo not shown) [Example 24, N-[4′-(2,4-Dioxothiazolidin-5-ylmethyl)biphenyl-3-ylmethyl]-N-methyl-3-phenylpropionamide]	8.7	95	72.3	–	–
CN(Cc1cccc(-c2ccc(CC3SC(=O)NC3=O)cc2)c1)C(=O)Nc1ccccc1 (stereo not shown) [Example 10, 1-[4′-(2,4-Dioxothiazolidin-5-ylmethyl)biphenyl-3-ylmethyl]-1-methyl-3-phenylurea]	0	22.1	800	–	–
CN(CCOc1ccc(C[C@H](OCC(F)(F)F)C(=O)O)cc1)c1nc2ccccc2o1 [Reference 2: SB 219994, reference compound]	–	–	0.5	–	100
